# Legend:
# [1] = Linear Polarisation Resistance (LPR) bubble test, corrosion inhibition under oilfield conditions; conditions: 20 ppm actives; 5% NaCl brine/Isopar M 9:1; 60° C.; constant CO2; 15 hours
# Protocol: [formula] where baseline corrosion was calculated by taking the average corrosion rate of each cell before the corrosion inhibitors were introduced.
# The same tests as described in Example 1 were carried out on the products set out in Table 3 below.
# [2] = Static acid immersion test in 5% w/w HCl; conditions: 50° C., 24 hours, 2000 ppm w/w active inhibitor
# Protocol: (§1) Static acid immersion tests were used to compare the corrosion inhibition performance of various sulfosuccinates in 5% w/w HCl to the industry standard propargyl alcohol (2-propyn-1-ol) and the corrosion inhibitor Stannine® ETH, which is a blend of amine salts and aliphatic alcohols and is available from Rhodia Novecare.
# (§2) • A control solution of 5% w/w HCl was prepared by diluting 37% w/w HCl with deionised water. • An inhibited solution of 5% w/w HCl & 2000 ppm w/w active corrosion inhibitor was then prepared for each of the corrosion inhibitors being evaluated. Stannine® ETH was used at 2000 ppm w/w solids as the active content of Stannine® ETH is unknown. • Each solution was then split evenly between 2 Schott bottles (for duplicate runs) and a pre-weighed C1018 mild steel coupon was placed in each so that it was completely submerged. • The Schott bottles were then sealed tightly and stored for 24 hours in an oven set at 50° C. • After the allotted time the coupons were removed from the oven and cleaned using deionised water, HCl cleaning solution and acetone. The HCl cleaning solution had been made by dissolving 5 g SnCl2 and 2 g SbCl3 in 100 ml of 37% w/w HCl. • The coupons were then oven dried before re-weighing with the average weight change of the duplicate coupons being used to calculate the corrosion rate. The above process was then repeated using (a) 5% w/w H2SO4 and (b) 5% w/w acetic acid instead of HCl.
# [3] = Static acid immersion test in 5% w/w acetic acid; conditions: 50° C., 24 hours, 2000 ppm w/w active inhibitor
# Protocol: as §1, §2
# [4] = Static acid immersion test in 5% w/w H2SO4; conditions: 5% w/w H2SO4, 50° C., 24 hours, 2000 ppm w/w active inhibitor
# Protocol: as §1, §2
Compound,"corrosion rate (LPR), in words [1]",% Efficiency [2],Corrosion rate [2],% Efficiency [3],Corrosion rate [3],% Efficiency [4],Corrosion rate [4],% Efficiency ([4]; listed as propargyl alcohol)
Disodium oleth 9 sulfosuccinate,"significantly reduce corrosion rates, although they do not perform quite as well as the industry standard",,,,,,,
Disodium laureth sulfosuccinate,significantly reduce the corrosion rate and have a performance very similar to the industry standard,,,,,,,
Disodium ricinoleamido MEA sulfosuccinate,significantly reduce the corrosion rate and have a performance very similar to the industry standard,84.4%,221.4 mils/y,77.2%,32.0 mils/y,81.1%,362.5 mils/y,
Disodium cocamido MIPA sulfosuccinate,significantly reduce the corrosion rate and have a performance very similar to the industry standard,,,,,,,
CCCCCCCC/C=C\CCCCCCCC(=O)NCCOC(=O)C(CC(=O)[O-])S(=O)(=O)[O-].[Na+].[Na+] (stereo not shown) [Disodium oleamido MEA sulfosuccinate],"significantly reduce corrosion rates, although they do not perform quite as well as the industry standard",88.0%,171.5 mils/y,56.7%,60.7 mils/y,65.2%,669.3 mils/y,
Disodium oleamido MIPA sulfosuccinate,significantly reduce the corrosion rate and have a performance very similar to the industry standard,88.5%,163.3 mils/y,70.9%,40.9 mils/y,68.4%,607.0 mils/y,
"C#CCO [Propargyl alcohol, 2-propyn-1-ol, reference compound]",,,9.5 mils/y,,,18.0%,1575.2 mils/y,not performing well as an inhibitor in this environment
